Laboratory results: ChEMBL document CHEMBL4825673, “Total and Semisyntheses of Polymyxin Analogues with 2-Thr or 10-Thr Modifications to Decipher the Structure-Activity Relationship and Improve the Antibacterial Activity” (J Med Chem, 2021)
≈ marks a conversion by molar mass, not a printed value.

Columns and labels:
Escherichia coli [1] = experiment: Antibacterial activity against Escherichia coli assessed as inhibition of bacterial growth incubated for 24 hrs by broth microdilution method; type: functional; conditions: read-out: MIC100
Pseudomonas aeruginosa [2] = experiment: Antibacterial activity against Pseudomonas aeruginosa PAO1 assessed as inhibition of bacterial growth incubated for 24 hrs by broth microdilution method; type: functional; conditions: read-out: MIC100
Klebsiella pneumoniae [3] = experiment: Antibacterial activity against Klebsiella pneumoniae assessed as inhibition of bacterial growth incubated for 24 hrs by broth microdilution method; type: functional; conditions: read-out: MIC100
Acinetobacter baumannii [4] = experiment: Antibacterial activity against Acinetobacter baumannii assessed as inhibition of bacterial growth incubated for 24 hrs by broth microdilution method; type: functional; conditions: read-out: MIC100
HK-2 = experiment: Cytotoxicity against human HK-2 cells assessed as cell viability incubated for 72 hrs by CCK-8 assay; type: cell-based; conditions: hk-2, 72 h
Pseudomonas aeruginosa [5] = experiment: Antibacterial activity against Pseudomonas aeruginosa assessed as inhibition of bacterial growth incubated for 24 hrs by broth microdilution method; type: functional; conditions: read-out: MIC100
Moraxella catarrhalis [6] = experiment: Antibacterial activity against Moraxella catarrhalis assessed as inhibition of bacterial growth incubated for 24 hrs by broth microdilution method; type: functional; conditions: read-out: MIC100
Klebsiella pneumoniae [7] = experiment: Antibacterial activity against Klebsiella pneumoniae KPN+14-10 assessed as inhibition of bacterial growth incubated for 24 hrs by broth microdilution method; type: functional; conditions: read-out: MIC100
Escherichia coli [8] = experiment: Antibacterial activity against Escherichia coli ECO-14-2 assessed as inhibition of bacterial growth incubated for 24 hrs by broth microdilution method; type: functional; conditions: read-out: MIC100
Pseudomonas aeruginosa [9] = experiment: Antibacterial activity against Pseudomonas aeruginosa PAE15-8 assessed as inhibition of bacterial growth incubated for 24 hrs by broth microdilution method; type: functional; conditions: read-out: MIC100
Moraxella catarrhalis [10] = experiment: Antibacterial activity against Moraxella catarrhalis BCA14-7 assessed as inhibition of bacterial growth incubated for 24 hrs by broth microdilution method; type: functional; conditions: read-out: MIC100
Acinetobacter baumannii [11] = experiment: Antibacterial activity against Acinetobacter baumannii ABA15-5 assessed as inhibition of bacterial growth incubated for 24 hrs by broth microdilution method; type: functional; conditions: read-out: MIC100
Pseudomonas aeruginosa [12] = experiment: Antibacterial activity against Pseudomonas aeruginosa PR15-1 assessed as inhibition of bacterial growth incubated for 24 hrs by broth microdilution method; type: functional; conditions: read-out: MIC100
Pseudomonas aeruginosa [13] = experiment: Antibacterial activity against Pseudomonas aeruginosa PAE15-3 assessed as inhibition of bacterial growth incubated for 24 hrs by broth microdilution method; type: functional; conditions: read-out: MIC100
Pseudomonas aeruginosa [14] = experiment: Antibacterial activity against Pseudomonas aeruginosa ATCC 27853 assessed as inhibition of bacterial growth incubated for 24 hrs by broth microdilution method; type: functional; conditions: read-out: MIC100
Klebsiella pneumoniae [15] = experiment: Antibacterial activity against Klebsiella pneumoniae KR15-2 assessed as inhibition of bacterial growth incubated for 24 hrs by broth microdilution method; type: functional; conditions: read-out: MIC100
Escherichia coli [16] = experiment: Antibacterial activity against Escherichia coli ECO+14-3 assessed as inhibition of bacterial growth incubated for 24 hrs by broth microdilution method; type: functional; conditions: read-out: MIC100
Acinetobacter baumannii [17] = experiment: Antibacterial activity against Acinetobacter baumannii ABA15-4 assessed as inhibition of bacterial growth incubated for 24 hrs by broth microdilution method; type: functional; conditions: read-out: MIC100
Acinetobacter baumannii [18] = experiment: Antibacterial activity against Acinetobacter baumannii AR15-4 assessed as inhibition of bacterial growth incubated for 24 hrs by broth microdilution method; type: functional; conditions: read-out: MIC100
Acinetobacter baumannii [19] = experiment: Antibacterial activity against Acinetobacter baumannii ABA15-6 assessed as inhibition of bacterial growth incubated for 24 hrs by broth microdilution method; type: functional; conditions: read-out: MIC100
Escherichia coli [20] = experiment: Antibacterial activity against Escherichia coli ECO+14-2 assessed as inhibition of bacterial growth incubated for 24 hrs by broth microdilution method; type: functional; conditions: read-out: MIC100
Pseudomonas aeruginosa [21] = experiment: Antibacterial activity against Pseudomonas aeruginosa PAE15-14 assessed as inhibition of bacterial growth incubated for 24 hrs by broth microdilution method; type: functional; conditions: read-out: MIC100
Klebsiella pneumoniae [22] = experiment: Antibacterial activity against Klebsiella pneumoniae KPN+14-8 assessed as inhibition of bacterial growth incubated for 24 hrs by broth microdilution method; type: functional; conditions: read-out: MIC100
Pseudomonas aeruginosa [23] = experiment: Antibacterial activity against Pseudomonas aeruginosa PAE15-5 assessed as inhibition of bacterial growth incubated for 24 hrs by broth microdilution method; type: functional; conditions: read-out: MIC100
Moraxella catarrhalis [24] = experiment: Antibacterial activity against Moraxella catarrhalis BCA15-3 assessed as inhibition of bacterial growth incubated for 24 hrs by broth microdilution method; type: functional; conditions: read-out: MIC100

SMILES	MIC (Escherichia coli [1]) [mg/L]	MIC (Pseudomonas aeruginosa [2]) [mg/L]	MIC (Klebsiella pneumoniae [3]) [mg/L]	MIC (Acinetobacter baumannii [4]) [mg/L]	MIC (Pseudomonas aeruginosa [5]) [mg/L]	MIC (Moraxella catarrhalis [6]) [mg/L]	MIC (Klebsiella pneumoniae [7]) [mg/L]	MIC (Escherichia coli [8]) [mg/L]	MIC (Pseudomonas aeruginosa [9]) [mg/L]	MIC (Moraxella catarrhalis [10]) [mg/L]	MIC (Acinetobacter baumannii [11]) [mg/L]	MIC (Pseudomonas aeruginosa [12]) [mg/L]	MIC (Pseudomonas aeruginosa [13]) [mg/L]	MIC (Pseudomonas aeruginosa [14]) [mg/L]	MIC (Klebsiella pneumoniae [15]) [mg/L]	MIC (Escherichia coli [16]) [mg/L]	MIC (Acinetobacter baumannii [17]) [mg/L]	MIC (Acinetobacter baumannii [18]) [mg/L]	MIC (Acinetobacter baumannii [19]) [mg/L]	Activity (HK-2)	also measured
CCCCCCCC(=O)N[C@@H](CCN)C(=O)N[C@H](C(=O)N[C@@H](CCN)C(=O)N[C@H]1CCNC(=O)[C@H](Cc2ccccc2)NC(=O)[C@H](CCN)NC(=O)[C@H](CCN)NC(=O)[C@H](CC(C)C)NC(=O)[C@@H](Cc2ccccc2)NC(=O)[C@H](CCN)NC1=O)[C@@H](C)O	2 (≈ 1.62 µM)	4 (≈ 3.24 µM)	2 (≈ 1.62 µM)	0.06 (≈ 0.0486 µM)	0.25 (≈ 0.202 µM)	2 (≈ 1.62 µM)	–	–	–	–	–	–	–	–	–	–	–	–	–	Non-Toxic	–
CC(C)CCCCC(=O)N[C@@H](CCN)C(=O)N[C@H](C(=O)N[C@@H](CCN)C(=O)N[C@H]1CCNC(=O)[C@H]([C@@H](C)O)NC(=O)[C@H](CCN)NC(=O)[C@H](CCN)NC(=O)[C@H](CC(C)C)NC(=O)[C@@H](Cc2ccccc2)NC(=O)[C@H](CCN)NC1=O)[C@@H](C)OC(=O)[C@@H]1CCCN1	0.06 (≈ 0.0466 µM)	1 (≈ 0.777 µM)	0.5 (≈ 0.389 µM)	–	0.03 (≈ 0.0233 µM)	> 32	0.5 (≈ 0.389 µM)	0.06 (≈ 0.0466 µM)	0.5 (≈ 0.389 µM)	32 (≈ 24.9 µM)	0.03 (≈ 0.0233 µM)	0.25 (≈ 0.194 µM)	0.5 (≈ 0.389 µM)	0.03 (≈ 0.0233 µM)	0.5 (≈ 0.389 µM)	0.125 (≈ 0.0972 µM)	0.03 (≈ 0.0233 µM)	0.03 (≈ 0.0233 µM)	< 0.015	Non-Toxic	MIC (Escherichia coli [20]): 0.5 mg/L (≈ 0.389 µM); MIC (Pseudomonas aeruginosa [21]): 0.25 mg/L (≈ 0.194 µM); MIC (Klebsiella pneumoniae [22]): 1 mg/L (≈ 0.777 µM); MIC (Pseudomonas aeruginosa [23]): 0.25 mg/L (≈ 0.194 µM); MIC (Moraxella catarrhalis [24]): 1 mg/L (≈ 0.777 µM)
CC[C@H](C)CCCCC(=O)N[C@@H](CCN)C(=O)N[C@H](C(=O)N[C@@H](CCN)C(=O)N[C@H]1CCNC(=O)[C@H]([C@@H](C)O)NC(=O)[C@H](CCN)NC(=O)[C@H](CCN)NC(=O)[C@H](CC(C)C)NC(=O)[C@@H](Cc2ccccc2)NC(=O)[C@H](CCN)NC1=O)[C@@H](C)OC(=O)[C@@H](N)Cc1ccc(O)cc1	0.25 (≈ 0.183 µM)	1 (≈ 0.732 µM)	2 (≈ 1.46 µM)	0.03 (≈ 0.022 µM)	0.125 (≈ 0.0915 µM)	> 32	2 (≈ 1.46 µM)	0.25 (≈ 0.183 µM)	0.5 (≈ 0.366 µM)	32 (≈ 23.4 µM)	0.06 (≈ 0.0439 µM)	0.5 (≈ 0.366 µM)	0.5 (≈ 0.366 µM)	0.125 (≈ 0.0915 µM)	4 (≈ 2.93 µM)	0.25 (≈ 0.183 µM)	0.06 (≈ 0.0439 µM)	0.125 (≈ 0.0915 µM)	0.03 (≈ 0.022 µM)	–	MIC (Escherichia coli [20]): 2 mg/L (≈ 1.46 µM); MIC (Pseudomonas aeruginosa [21]): 0.25 mg/L (≈ 0.183 µM); MIC (Klebsiella pneumoniae [22]): 4 mg/L (≈ 2.93 µM); MIC (Pseudomonas aeruginosa [23]): 0.25 mg/L (≈ 0.183 µM); MIC (Moraxella catarrhalis [24]): 1 mg/L (≈ 0.732 µM)

The remaining molecules from weak to strong by MIC (Pseudomonas aeruginosa [2]), led by results:

MIC (Escherichia coli [1]) [mg/L]	MIC (Pseudomonas aeruginosa [2]) [mg/L]	MIC (Klebsiella pneumoniae [3]) [mg/L]	MIC (Acinetobacter baumannii [4]) [mg/L]	MIC (Pseudomonas aeruginosa [5]) [mg/L]	MIC (Moraxella catarrhalis [6]) [mg/L]	MIC (Klebsiella pneumoniae [7]) [mg/L]	MIC (Escherichia coli [8]) [mg/L]	MIC (Pseudomonas aeruginosa [9]) [mg/L]	MIC (Moraxella catarrhalis [10]) [mg/L]	MIC (Acinetobacter baumannii [11]) [mg/L]	MIC (Pseudomonas aeruginosa [12]) [mg/L]	MIC (Pseudomonas aeruginosa [13]) [mg/L]	MIC (Pseudomonas aeruginosa [14]) [mg/L]	MIC (Klebsiella pneumoniae [15]) [mg/L]	MIC (Escherichia coli [16]) [mg/L]	MIC (Acinetobacter baumannii [17]) [mg/L]	MIC (Acinetobacter baumannii [18]) [mg/L]	MIC (Acinetobacter baumannii [19]) [mg/L]	SMILES	Activity (HK-2)	also measured
–	32 (≈ 26.3 µM)	–	–	–	–	–	–	–	–	–	–	–	–	–	–	–	–	–	CCCCCCCC(=O)N[C@@H](CCN)C(=O)N[C@H](C(=O)N[C@@H](CCN)C(=O)N[C@H]1CCNC(=O)[C@H](CCC(N)=O)NC(=O)[C@H](CCN)NC(=O)[C@H](CCN)NC(=O)[C@H](CC(C)C)NC(=O)[C@@H](Cc2ccccc2)NC(=O)[C@H](CCN)NC1=O)[C@@H](C)O	Non-Toxic	–
–	4 (≈ 2.74 µM)	–	–	–	–	–	–	–	–	–	–	–	–	–	–	–	–	–	CC[C@H](C)CCCCC(=O)N[C@@H](CCN)C(=O)N[C@H](C(=O)N[C@@H](CCN)C(=O)N[C@H]1CCNC(=O)[C@H]([C@@H](C)OC(=O)[C@@H](N)CCCCN)NC(=O)[C@H](CCN)NC(=O)[C@H](CCN)NC(=O)[C@H](CC(C)C)NC(=O)[C@@H](Cc2ccccc2)NC(=O)[C@H](CCN)NC1=O)[C@@H](C)OC(=O)[C@@H](N)CCCCN	Non-Toxic	–
0.25 (≈ 0.19 µM)	2 (≈ 1.52 µM)	0.5 (≈ 0.379 µM)	0.125 (≈ 0.0948 µM)	0.25 (≈ 0.19 µM)	> 32	–	–	–	–	–	–	–	–	–	–	–	–	–	CC[C@H](C)CCCCC(=O)N[C@@H](CCN)C(=O)N[C@H](C(=O)N[C@@H](CCN)C(=O)N[C@H]1CCNC(=O)[C@H]([C@@H](C)O)NC(=O)[C@H](CCN)NC(=O)[C@H](CCN)NC(=O)[C@H](CC(C)C)NC(=O)[C@@H](Cc2ccccc2)NC(=O)[C@H](CCN)NC1=O)[C@@H](C)OC(=O)[C@@H](N)CC(=O)O	Non-Toxic	–
